Assay results reported in article PMC11251990 (Frontiers in Pharmacology, 2024).

How the values were obtained:
Assay type in all cases: biochemical
[1] = target: T1, dipeptidyl peptidase 1 (DPP1, cathepsin C) (Rattus norvegicus, UniProt P80067); test: fluorogenic H-Gly-Arg-AMC cleavage assay with recombinant enzyme
T1 construct: gene Ctsc; recombinant rat DPP1, proteolytically processed into mature form with cathepsin L

[2] = target: T2, dipeptidyl peptidase 1 (DPP1, cathepsin C) (Mus musculus, UniProt P97821); test: as above
T2 construct: gene Ctsc; recombinant mouse DPP1

[3] = target: T3, dipeptidyl peptidase 1 (DPP1, cathepsin C) (Canis lupus, UniProt O97578); test: fluorogenic H-Gly-Arg-AMC cleavage assay in crude white blood cell lysate; details: read-out: DPP1 / Dog
T3 construct: gene CTSC; native DPP1 in dog white blood cell lysate
T3 sequence (O97578 1-109): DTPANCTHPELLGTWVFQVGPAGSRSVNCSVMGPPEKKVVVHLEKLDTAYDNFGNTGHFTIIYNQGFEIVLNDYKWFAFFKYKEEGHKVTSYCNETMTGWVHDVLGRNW
T3 sequence (O97578 200-435): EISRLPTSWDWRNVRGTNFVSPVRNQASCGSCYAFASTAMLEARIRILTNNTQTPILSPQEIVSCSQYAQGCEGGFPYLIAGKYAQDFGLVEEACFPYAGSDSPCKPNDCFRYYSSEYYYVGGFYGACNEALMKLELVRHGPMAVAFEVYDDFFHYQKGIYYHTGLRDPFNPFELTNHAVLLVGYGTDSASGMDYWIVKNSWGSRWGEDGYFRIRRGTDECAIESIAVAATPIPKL

T1 sequence (P80067 25-134): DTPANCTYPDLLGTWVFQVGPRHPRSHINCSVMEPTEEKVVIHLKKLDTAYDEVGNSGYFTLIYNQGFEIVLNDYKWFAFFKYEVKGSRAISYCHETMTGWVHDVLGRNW
T1 sequence (P80067 230-393): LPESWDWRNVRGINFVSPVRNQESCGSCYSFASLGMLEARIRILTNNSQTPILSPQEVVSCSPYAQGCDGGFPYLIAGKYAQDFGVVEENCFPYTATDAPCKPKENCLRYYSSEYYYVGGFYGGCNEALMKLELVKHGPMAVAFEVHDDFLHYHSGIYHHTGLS
T1 sequence (P80067 394-462): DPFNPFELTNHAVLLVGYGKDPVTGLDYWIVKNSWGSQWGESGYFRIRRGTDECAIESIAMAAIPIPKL
T2 sequence (P97821 25-134): as the sequence (P80067 25-134) above, with H23S, P24S, H27D, P35A, I42V, V54L, Y59H, K86R, S88H, R89T counted along it
T2 sequence (P97821 231-462): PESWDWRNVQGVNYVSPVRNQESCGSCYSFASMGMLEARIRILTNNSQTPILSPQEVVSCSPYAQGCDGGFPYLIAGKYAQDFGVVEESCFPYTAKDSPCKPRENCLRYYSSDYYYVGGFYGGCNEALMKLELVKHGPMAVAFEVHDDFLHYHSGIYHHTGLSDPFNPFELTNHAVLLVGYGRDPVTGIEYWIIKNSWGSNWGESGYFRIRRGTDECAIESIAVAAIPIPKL

Cn1c(=O)oc2ccc(-c3ccc(C[C@@H](C#N)NC(=O)[C@@H]4CNCCCO4)cc3)cc21 [brensocatib]
IC50 [1]: 51.1 nM
IC50 [2]: 24.1 nM
IC50 [3]: 38.1 nM
